In patent US20250032580A1, “USE OF ADNF POLYPEPTIDES IN THERAPY” (RAMOT AT TEL-AVIV UNIVERSITY LTD., priority 2021, published 2025):

Key:
Tyr mice = experiment: CatWalk gait analysis; format: in vivo, mouse; parameters: key to NAP efficacy: motor impediments: corrections by NAP treatment (+)
Procedure: Animals—Animals were housed under a 12-hour light/dark cycle, with food and water ad-libitum. Mouse pups were subcutaneously administrated with NAP [having an amino acid sequence NAPVSIPQ (SEQ ID NO: 2), 25 μg NAP/1 ml saline] as described (8, 12). At 21 days of age mice were administered daily intranasal NAP in vehicle solution (“DD”—7.5 mg/ml of NaCl, 1.7 mg/ml of citric acid, 3 mg/ml of disodium phosphate dihydrate, and 0.2 mg/ml of 50% benzalkonium chloride solution) (0.5 μg NAP/5p1 DD) (8, 9, 12, and U.S. Pat. No. 10,912,819 to Gozes). These mice continued to behavioral analysis as described hereinbelow. The noninvasive intranasal route was chosen as these experiments required daily handling and administration. Age (weeks) of mice during behavioral experiments (mean±SEM) was as follows: Catwalk-9.23±0.15, grooming-10±0.15, social approach-10.5±0.12, odor-discrimination-12.12±0.13, hanging-wire-13±0.14, hotplate-13.18±0.13. Group size was determined following previous experiments (12). Pups were randomly allocated to either the NAP or DD group according to sex and genotype. All procedures involving animals were conducted under the supervision and approval of the institutional animal care and use committee of Tel Aviv University and the Israeli Ministry of Health.
Catwalk—Was performed as previously described (12).
CatWalk: Briefly, The CatWalk XT (Noldus Inc. Leesburg, VA) was used to analyze the gait of unforced, moving mice^10 Mice had to cross the runway of the CatWalk XT apparatus in a consistent manner, and a successful run was defined when an animal ran the track without any interruption or hesitation. Every mouse was tested until 3 successful runs were achieved.
Base of support is the average width between either the front paws or the hind paws. Swing (sec) or swing phase is the duration in seconds of no contact of a paw with the glass plate. Swing Speed is the speed (Distance Unit/second) of the paw during Swing. Max Contact Max Intensity is the maximum Intensity at Max Contact of a paw. Intensity ranges from 0 to 255 in arbitrary units. The intensity of a print depends on the degree of contact between a paw and the glass plate and increases with increasing weight. Therefore, Intensity is a measure of weight put on the glass plate.
The Intensity parameter is used to assess the effects of neuropathic pain, including mechanical allodynia. Max Contact Mean Intensity is the mean Intensity of a paw at Max Contact. Print length is the length (horizontal direction) of the complete print. The complete print is the sum of all contacts with the glass plate, as if the animal's paw would have been inked. Print width is the width (vertical direction) of the complete paw. Print area is the surface area of the complete print. Max Intensity is the maximum Intensity of the complete paw. Mean intensity is the mean Intensity of the complete paw.

male Tyr mice = experiment: Visual evoked potentials (VEP); format: in vivo, mouse; parameters: key to NAP efficacy: visual evoked potential: corrections by NAP treatment (+)
Procedure: VEP—5.72±0.52-week-old male mice were used for VEP measurements. Animals were treated for 3 days with 0.1 ml S.C saline, recorded, and then followed by 4 daily S.C doses of either 1 μg NAP (in 0.1 ml saline) or 0.1 ml saline followed by another VEP recording.

[1] = system: SHANK3 mouse model (InsG3680 mutation); experiment: Open field behavior; format: in vivo; details: intranasal, once daily, five days a week for a month
Procedure: To this end, mice with the ASD-linked InsG3680 mutation were used. Two behavioral assessments were performed on make mice: • 1) Open field behavior attesting to anxiety and depression (Open field behavioral assessment technology was previously described, e.g.); and • 2) Social recognition behavior, related to autistic traits (the social recognition test was previously described, e.g..
This surprising finding is of importance as there is a psychiatric illness and regression in individuals with Phelan-McDermid syndrome.

Adnp+/− mouse = system: Adnp+/− mouse; parameters: key: corrections by NAP treatment (+); details: second symbol of cell, cited from earlier work
[2] = system: adult compromised patients; details: cited from earlier work

CC[C@H](C)[C@H](NC(=O)[C@H](CO)NC(=O)[C@@H](NC(=O)[C@@H]1CCCN1C(=O)[C@H](C)NC(=O)[C@@H](N)CC(N)=O)C(C)C)C(=O)N1CCC[C@H]1C(=O)N[C@@H](CCC(N)=O)C(=O)O [NAP, NAPVSIPQ]
Front base of support (Tyr mice; Tyr mice, males and females): NAP correcting this phenotype in males
NAP efficacy: motor impediments (Tyr mice; Tyr mouse (gait), first symbol of cell): +/(gait)+
Gait parameters (Tyr mice; WT mice, data not shown): No major NAP effect
Intensity parameters (gait) (Tyr mice; female Tyr mice): significant NAP correction
Swing speed and swing duration (Tyr mice; female Tyr mice): ameliorated by NAP
Print width (Tyr mice; female Tyr mice, FIG. 1F): significant NAP correction effect
Print length and area (Tyr mice; male Tyr mice, daily intranasal NAP): significant NAP recovery
NAP efficacy: visual evoked potential (male Tyr mice; Tyr mouse, first symbol of cell): +/+
VEP traces (male Tyr mice; male Tyr mice, 4 consecutive daily doses): normalizing these effects
Decrease of VEP P2 AUC (male Tyr mice; male Tyr mice, 4 daily s.c. doses of 1 μg NAP, 100, 300 and 3000 mcd): 1.6-2.3 fold
VEP N2 AUC (male Tyr mice; male Tyr mice, 100, 300 and 3000 mcd): same significant change
VEP P3 AUC (male Tyr mice; male Tyr mice, 300 and 3000 mcd): significant NAP effect
Cumulative duration in the center (open field) [1]: significantly increased
NAP efficacy: cognitive impairments, behavioral deficits (Adnp+/− mouse; Adnp+/− mouse (8)): +(odor)/+(8)
NAP efficacy: axonal transport (Adnp+/− mouse; Adnp+/− mouse): +/+
NAP efficacy: gene expression patterns (Adnp+/− mouse; Adnp+/− mouse): +/+
NAP efficacy: global developmental delays (Adnp+/− mouse; Adnp+/− mouse): +/+
NAP efficacy: microbiota (Adnp+/− mouse; Adnp+/− mouse): +/+
NAP efficacy: motor impediments (Adnp+/− mouse; Adnp+/− mouse): +/(gait)+
NAP efficacy: short stature (Adnp+/− mouse; Adnp+/− mouse): +
NAP efficacy: speech impediments (Adnp+/− mouse; Adnp+/− mouse): +/+ (syntax)
NAP efficacy: synaptic structural alterations (Adnp+/− mouse; Adnp+/− mouse): +/+
NAP efficacy: tauopathy, hyperphosphorylated Tau deposits (Adnp+/− mouse; Adnp+/− mouse): +/+
Clinical efficacy ([2]; adult patients): enhancement of cognitive function and functional activities of daily living
Safety and tolerance ([2]; hundreds of adult compromised patients): proven safety and tolerance
